What is called melting point is the temperature, or range, at which the solid turns liquid. A word on the pKi: it is the negative decadic logarithm of the Ki, by convention in mol/L.

Four molecules from US6638972B2, “Chroman and benzofuran derivatives as 5-hydroxytryptamine-6 ligands” (Wyeth, priority 2001, dated 2003) can be followed below.

pKi: −log10 of the molar value.

Data set [1] concerns the target T1, human cloned 5-HT6 receptors (Homo sapiens, UniProt P50406).
T1 construct: expressed in transfected cells; host or cells: HeLa cells (membrane preparation)
The data set can be described thus: 5-HT6 binding affinity ([3H]-LSD displacement, membranes of Hela cells expressing human cloned 5-HT6 receptors). Particulars: [3H]-LSD 3.0 nM, Hela cell membranes, 120 min at room temperature; read-out: 5-HT6 Binding Ki. Here is the method:
The affinity of test compounds for the serotonin 5-T6 receptor is evaluated in the following manner. Cultured Hela cells expressing human cloned 5-HT6 receptors are harvested and centrifuged at low speed (1,000×g) for 10.0 min to remove the culture media. The harvested cells are suspended in half volume of fresh physiological phosphate buffered saline solution and recentrifuged at the same speed. This operation is repeated. The collected cells are then homogenized in ten volumes of 50 mM Tris.HCl (pH 7.4) and 0.5 mM EDTA. The homogenate is centrifuged at 40,000×g for 30.0 min and the precipitate is collected. The obtained pellet is resuspended in 10 volumes of Tris.HCl buffer and recentrifuged at the same speed. The final pellet is suspended in a small volume of Tris.HCl buffer and the tissue protein content is determined in aliquots of 10-25 μl volumes. Bovine Serum Albumin is used as the standard in the protein determination according to the method described in Lowry et al., J. Biol. Chem., 193:265 (1951). The volume of the suspended cell membranes is adjusted to give a tissue protein concentration of 1.0 mg/ml of suspension. The prepared membrane suspension (10 times concentrated) is aliquoted in 1.0 ml volumes and stored at −70° C. until used in subsequent binding experiments.
Binding experiments are performed in a 96 well microtiter plate format, in a total volume of 200 μl. […] The test compounds are added in 20.0 μl volume.
The reaction is allowed to proceed in the dark for 120 min at room temperature, at which time, the bound ligand-receptor complex is filtered off on a 96 well unifilter with a Packard Filtermate® 196 Harvester. The bound complex caught on the filter disk is allowed to air dry and the radioactivity is measured in a Packard TopCount® equipped with six photomultiplier detectors, after the addition of 40.0 μl Microscint®-20 scintillant to each shallow well. The unifilter plate is heat-sealed and counted in a PackardTopCount® with a tritium efficiency of 31.0%.
Binding in the presence of varying concentrations of test compound is expressed as a percentage of specific binding in the absence of test compound. The results are plotted as log % bound versus log concentration of test compound. […] A linear regression line of data points is plotted, from which the IC50 value is determined and the Ki value is determined based upon the following equation: […]
where L is the concentration of the radioactive ligand used and KD is the dissociation constant of the ligand for the receptor, both expressed in nM.

T1 sequence (P50406 whole entry): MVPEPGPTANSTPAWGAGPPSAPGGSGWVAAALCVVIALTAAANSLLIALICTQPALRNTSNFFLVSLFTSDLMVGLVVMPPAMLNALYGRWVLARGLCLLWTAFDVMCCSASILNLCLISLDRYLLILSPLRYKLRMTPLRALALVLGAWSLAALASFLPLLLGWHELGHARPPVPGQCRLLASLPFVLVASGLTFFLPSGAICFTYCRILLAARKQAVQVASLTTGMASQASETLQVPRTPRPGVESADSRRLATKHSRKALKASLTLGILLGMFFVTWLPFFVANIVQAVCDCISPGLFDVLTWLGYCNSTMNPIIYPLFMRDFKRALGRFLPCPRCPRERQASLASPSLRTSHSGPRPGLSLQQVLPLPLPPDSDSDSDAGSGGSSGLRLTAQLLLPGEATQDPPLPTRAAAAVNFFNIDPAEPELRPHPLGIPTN

`COCCCNC[C@H]1CCc2ccc(OCc3ccccc3)cc2O1` [Example 46, [(2R)-7-benzyloxy-chroman-2-ylmethyl]-(3-methoxy-propyl)-amine] returned a melting point of 128 to 129 °C. In addition, in data set [1], the pKi is 7.60.

In turn, `OCCCNCC1Cc2ccc(OCc3ccccc3)cc2O1` (centres unmarked) [Example 53, 3-[(6-benzyloxy-2,3-dihydro-benzofuran-2-ylmethyl)-amino]-propan-1-ol] yielded a melting point of 125 to 127 °C. Besides, the pKi in data set [1] is 6.47.

`c1ccc(CNCc2cc3ccc(OCc4ccccc4)cc3o2)cc1` [Example 54, benzyl-(6-benzyloxy-benzofuran-2-ylmethyl)-amine] returned a melting point of 198 to 200 °C. Further, the pKi in data set [1] was 5.87.

With `OCCCNCc1cc2ccc(OCc3ccccc3)cc2o1` [Example 55, 3-[(6-benzyloxy-benzofuran-2-ylmethyl)-amino]-propan-1-ol], the melting point was 145 to 147 °C. The pKi in data set [1] was 5.93.
